Data as given in patent US8227506B2, “Benzamidine compound” (Ajinomoto., Inc., priority 2005, dated 2012).

Legend:
FXa = FXa (Homo sapiens, UniProt P00742); test: Determination of activated factor X activity-inhibitory activity (chromogenic substrate S-2222); type: biochemical; conditions: negative logarithm of the concentration suppressing 50% of the reaction rate of the control, 0.015 U/ml FXa
Method: Determination of Activated Factor X Activity-Inhibitory Activity
(§1) Using a 96 well plate (#3396, Costar), 0.015 U/ml FXa (10 μL) and a test compound (10 μL) were blended with 100 mM Tris-HCl buffer (130 μL) containing 0.02% Tween 20, 0.1% PEG6000 and 0.2 M NaCl for 10 minutes, and a substrate for color development (0.2 mM S-2222 50 μL) was added thereto. Using a Microplate reader Benchmark Plus (BIO-RAD), the reaction rate was measured from the time course changes at absorbance 405 nm. The reaction rate of the control was taken as 100% and the negative logarithm of the concentration capable of suppressing 50% of the reaction rate of the control was taken as the pIC50 value.

[1] = biological target: activated factor IIa (thrombin) (Homo sapiens, UniProt P00734); test: Determination of activated factor II (FIIa, thrombin)-inhibitory activity (chromogenic substrate S-2238); type: biochemical; conditions: negative logarithm of the concentration suppressing 50% of the reaction rate of the control, 0.125 U/ml thrombin
Method: Determination of Activated Factor II (FIIa, Thrombin)-Inhibitory Activity
as §1, with “0.125” for “0.015”, “activated factor IIa (thrombin)” for “FXa”, “(0.1” for “(0.2”, “S-2238” for “S-2222”

human plasma = test: Determination of anticoagulant activity (aPTT measurement method); conditions: negative logarithm of the concentration prolonging the aPTT of the control to two-fold
Method: Determination of Anticoagulant Activity
The aPTT measurement method using an automatic blood coagulation time measuring device, Sysmex CA-3000 (TOA Medical Electronics Co., Ltd.) was performed. A solution (5 μl) of the test compound was placed in a sample tube (SU-40, TOA Medical Electronics Co., Ltd.), human plasma (hemolyance coagulation control I, iatron Laboratory, 45 μl) was added and the mixture was incubated at 37° C. for 3 minutes. To the plasma solution were added dataphay•APTT (rabbit brain-derived cephalin, DADE Behring Co., Ltd., 50 μl) and 0.02 M calcium chloride (50 μl), and the time up to the coagulation of plasma was automatically measured. The anticoagulation activity is shown as the negative logarithm of the concentration prolonging the aPTT of the control to two-fold (paPTT2).

[2] = Evaluation of stability in plasma; type: in vitro ADME; conditions: disappearance half-life in human plasma, 37° C., final drug concentration 10 μM, HPLC
Method: Evaluation of Stability in Plasma
A […] solution (5 μl) of the test compound was added to human plasma (495 μl) (final drug concentration, 10 μM), and the mixture was incubated at 37° C. Samples (each 50 μl) were taken at 0 minutes, 3 minutes, 10 minutes, and 20 minutes after addition of the drug solution, diluted with distilled water (50 μl), and the reaction was quenched by adding 100% acetonitrile (300 μl) and blending them. After deproteinization by centrifugation at 15000 rpm for 5 minutes, the mixture was concentrated to dryness by a centrifugal evaporator. The sample was dissolved in 120 μl of 0.1% aqueous TFA, the peak area or height of the test compound was calculated by HPLC, and the disappearance half-life was determined.

dog dialysis model = test: Evaluation of dog dialysis model; type: in vivo, dog (Beagles)
Method: Evaluation of Dog Dialysis Model
Beagles (♂, 11 kg-15 kg, Nosan Corp., Japan) were anesthetized with pentobarbital (30 mg/kg, Tokyo Chemical Industry Co., Ltd.) by intravenous administration from the cephalic vein of the forefoot. A tracheostomy tube was inserted and artificial breathing was started. Placing needles [14G (serflow placing needle, Termo Corp.), 16G (happycath, Medikit Co., Led), 18G (serflow placing needle, Termo Corp.)] were punctured into the left femoral vein, right femoral artery, and right cephalic vein of the forefoot, respectively, and an outer shunt (Senko Medical Instrument Mfg. CO., Ltd.) filled with saline was set to the femoral vein and artery. For hemodialysis, a hemodialysis device for one person (DBG-01, Nikkiso Co., Ltd.), a hollow fiber dialyzer (FB-50, triacetate (CTA) film, Nipro Corp.) and sodium bicarbonate dialysate (AK-sorita•DL, Shimizu Corp.) were used.
The experiment was performed under the conditions of blood flow 80 ml/minute, dialysate flow 300 ml/minute, water removal amount 0 ml/minute. During dialysis, pentobarbital (12 mg/kg/hour) was continuously administered from the cephalic vein of the forefoot to maintain anesthesia. The control and test compounds were continuously administered into the arterial blood circuit (B) at 5 ml/hour. […]

FXa, sequence (P00742 235-488 limits assumed): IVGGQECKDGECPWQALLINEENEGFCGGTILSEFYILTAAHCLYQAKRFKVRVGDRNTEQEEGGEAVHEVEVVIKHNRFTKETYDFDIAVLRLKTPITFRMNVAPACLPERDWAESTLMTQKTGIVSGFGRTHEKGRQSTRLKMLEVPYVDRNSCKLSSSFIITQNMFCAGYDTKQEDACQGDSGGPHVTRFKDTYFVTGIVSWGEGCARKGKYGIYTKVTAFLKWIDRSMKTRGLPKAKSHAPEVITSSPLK
FXa, sequence (P00742 41-179 partner limits assumed): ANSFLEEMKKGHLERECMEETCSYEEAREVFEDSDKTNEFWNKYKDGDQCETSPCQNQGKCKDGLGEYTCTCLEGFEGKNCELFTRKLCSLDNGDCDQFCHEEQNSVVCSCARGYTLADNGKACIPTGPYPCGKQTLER

IC50 (FXa)	IC50 [1]	half-life at 10 μM [2]	bleeding time (dog dialysis model; Template method, 2 hour after the start of the administration, versus control (FIG. 2))	Compound	paPTT2 (human plasma)	dialysis time (dog dialysis model; up to arterial circuit pressure 300 mmHg or 4 hours after the start of the dialysis (FIG. 1))
3.16 nM	79400 nM	1.6 min		N=C(N)c1ccc(O)c(OCCOC(=O)c2ccc(C(=N)N3CCCC3)cc2)c1 [Ex. 6, 2-{5-amidino-2-hydroxyphenoxy}ethyl 4-[imino(pyrrolidin-1-yl)methyl]benzoate ditrifluoroacetate]	6	
15.8 nM	63100 nM	2.7 min		N=C(N)c1ccc(OCCO)c(OCCOC(=O)c2ccc(C(=N)N3CCCC3)cc2)c1 [Ex. 13, 2-[5-amidino-2-(2-hydroxyethoxy)phenoxy]ethyl 4-[imino(pyrrolidin-1-yl)methyl]benzoate ditrifluoroacetate]	6.4	
63.1 nM	> 100000 nM	1.7 min		CC(=N)N1CCC(Oc2ccc(C(=O)OCCOc3cccc(C(=N)N)c3)cc2)CC1 [Ex. 16, 2-{3-amidinophenoxy}ethyl 4-[(1-(1-iminoethyl)piperidin-4-yl)oxy]benzoate ditrifluoroacetate]	5.4	
251 nM	> 100000 nM	1.1 min		COc1ccc(C(=N)N)cc1OCCOC(=O)c1ccc(C(=N)N2CCCC2)cc1 [Ex. 18, 2-{5-amidino-2-methoxyphenoxy}ethyl 4-[imino(pyrrolidin-1-yl)methyl]benzoate ditrifluoroacetate]	5.2	
12.6 nM	6310 nM	2.1 min	of the same level as the control	N#CCOc1ccc(C(=N)N)cc1OCCOC(=O)c1ccc(C(=N)N2CCCC2)cc1 [Ex. 20, 2-[5-amidino-2-(cyanomethoxy)phenoxy]ethyl 4-[imino(pyrrolidin-1-yl)methyl]benzoate ditrifluoroacetate]		4 h

Continued, molecule first:

Compound	IC50 (FXa)	IC50 [1]	half-life at 10 μM [2]	bleeding time (dog dialysis model; Template method, 2 hour after the start of the administration, versus control (FIG. 2))	paPTT2 (human plasma)	dialysis time (dog dialysis model; up to arterial circuit pressure 300 mmHg or 4 hours after the start of the dialysis (FIG. 1))
N=C(N)c1cccc(OCCOC(=O)c2ccc(OC3CCN(C(=N)N)CC3)cc2)c1 [Ex. 17, 2-{3-amidinophenoxy}ethyl 4-({1-amidinopiperidin-4-yl}oxy)benzoate ditrifluoroacetate]	63.1 nM	> 100000 nM	5.6 min			
CC(C)COc1ccc(C(=N)N)cc1OCCOC(=O)c1ccc(C(=N)N2CCCC2)cc1 [Ex. 24, 2-{5-amidino-2-isobutoxyphenoxy}ethyl 4-[imino(pyrrolidin-1-yl)methyl]benzoate ditrifluoroacetate]	39.8 nM	12600 nM	0.7 min			
CC(=O)Oc1ccc(C(=N)N)cc1OCCOC(=O)c1ccc(C(=N)N2CCCC2)cc1 [Ex. 28, 2-{2-(acetoxy)-5-amidinophenoxy}ethyl 4-[imino(pyrrolidin-1-yl)methyl]benzoate ditrifluoroacetate]	3.98 nM	1580 nM	3.5 min			
N=C(N)c1cccc(OCCOC(=O)c2ccc(C(=N)N3CCCC3)nc2)c1 [Ex. 37, 2-(3-amidinophenoxy)ethyl 6-[imino(pyrrolidin-1-yl)methyl]nicotinate tritrifluoroacetate]	200 nM	> 100000 nM			5.2	
